What all share (experiment): relative viability (nuclei count vs DMSO), 5 days (fraction); higher = more cells survive
Compound in experiment [1]: CC[C@H](CO)Nc1nc(NCc2ccccc2)c2ncn(C(C)C)c2n1 [Seliciclib] + C[C@@H](Oc1cc(-c2cnn(C3CCNCC3)c2)cnc1N)c1c(Cl)ccc(F)c1Cl [Crizotinib] (partner 1 µM)
The procedure, abridged: (§1)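 For relative viability, nuclei counts in treated wells were divided by those in vehicle wells. Lung cancer cell lines had been pin-tool dosed in 1536-well plates the day after seeding and cultured for 5 days, then fixed and stained in one step (final 0.05% Triton X-100, 1% formaldehyde, 1 ug/ml Hoechst) and imaged at 4×. Doses were one drug alone or a fixed anchor-drug dose plus five library-drug doses (not always all listed) in √10 steps, and values are duplicate-plate medians.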

Compound in experiment [2]: CC[C@H](CO)Nc1nc(NCc2ccccc2)c2ncn(C(C)C)c2n1 [Seliciclib] + CC(=O)c1c(C)c2cnc(Nc3ccc(N4CCNCC4)cn3)nc2n(C2CCCC2)c1=O [Palbociclib] (partner 0.5 µM)
In outline:
as §1

Compound in experiment [3]: CC[C@H](CO)Nc1nc(NCc2ccccc2)c2ncn(C(C)C)c2n1 [Seliciclib] + O=C(CCCCCCC(=O)Nc1ccccc1)NO [Vorinostat] (partner 1 µM)
The procedure, abridged:
as §1

Compound in experiment [4]: CC[C@H](CO)Nc1nc(NCc2ccccc2)c2ncn(C(C)C)c2n1 [Seliciclib] + NC(=O)Nc1cc(-c2cccc(F)c2)sc1C(=O)N[C@H]1CCCNC1 [AZD7762] (partner 0.2 µM)
The procedure, abridged:
as §1

Regarding SK-LU-1, the relative viability amounted to 0.874 in experiment [1] (first compound 0.08 µM); 0.987 in experiment [1] (first compound 0.253 µM); 1.03 in experiment [1] (first compound 0.8 µM); 0.892 in experiment [1] (first compound 2.53 µM); 0.688 in experiment [1] (first compound 8 µM); 0.408 in experiment [2] (first compound 0.08 µM). For the same cell line, the relative viability came to 0.389 in experiment [2] (first compound 0.253 µM); 0.403 in experiment [2] (first compound 0.8 µM); 0.346 in experiment [2] (first compound 2.53 µM); 0.313 in experiment [2] (first compound 8 µM); 0.701 in experiment [3] (first compound 0.08 µM); 0.879 in experiment [3] (first compound 0.253 µM). Moreover, the relative viability came to 0.877 in experiment [3] (first compound 0.8 µM), 0.753 in experiment [3] (first compound 2.53 µM) and 0.477 in experiment [3] (first compound 8 µM).
For the cell line SK-MES-1, the relative viability in experiment [1] (first compound 0.08 µM) worked out at 1; in experiment [1] (first compound 0.253 µM), 1; in experiment [1] (first compound 0.8 µM), 0.891; in experiment [1] (first compound 2.53 µM) it was 0.96; in experiment [1] (first compound 8 µM), 0.914; in experiment [2] (first compound 0.08 µM) it was 0.329. Moreover, the relative viability in experiment [2] (first compound 0.253 µM) stood at 0.336; in experiment [2] (first compound 0.8 µM) it was 0.314; in experiment [2] (first compound 2.53 µM) it was 0.259; in experiment [2] (first compound 8 µM), 0.277; in experiment [3] (first compound 0.08 µM), 1.03; in experiment [3] (first compound 0.253 µM), 1.13. In addition, the relative viability was found to be 1.11 in experiment [3] (first compound 0.8 µM), 1.02 in experiment [3] (first compound 2.53 µM) and 1.01 in experiment [3] (first compound 8 µM).
Regarding SW 900, the relative viability in experiment [2] (first compound 0.08 µM) stood at 0.583; in experiment [2] (first compound 0.253 µM), 0.489; in experiment [2] (first compound 0.8 µM), 0.513; in experiment [2] (first compound 2.53 µM), 0.411; in experiment [2] (first compound 8 µM), 0.306; in experiment [4] (first compound 0.08 µM) it was 0.537. For the same cell line, the relative viability in experiment [4] (first compound 0.253 µM) worked out at 0.616; in experiment [4] (first compound 0.8 µM), 0.704; in experiment [4] (first compound 2.53 µM), 0.647; in experiment [4] (first compound 8 µM) it was 0.559; in experiment [3] (first compound 0.08 µM) it was 0.53; in experiment [3] (first compound 0.253 µM) it was 0.701. Further, the relative viability in experiment [3] (first compound 0.8 µM) was 0.484; in experiment [3] (first compound 2.53 µM), 0.467; in experiment [3] (first compound 8 µM) it was 0.35.
Take SW 1573: the relative viability in experiment [1] (first compound 0.08 µM) was 0.823; in experiment [1] (first compound 0.253 µM), 0.759; in experiment [1] (first compound 0.8 µM), 0.77; in experiment [1] (first compound 2.53 µM) it was 0.847; in experiment [1] (first compound 8 µM) it was 0.642; in experiment [2] (first compound 0.08 µM), 0.332. The relative viability in experiment [2] (first compound 0.253 µM) turned out to be 0.315; in experiment [2] (first compound 0.8 µM), 0.368; in experiment [2] (first compound 2.53 µM), 0.361; in experiment [2] (first compound 8 µM), 0.292; in experiment [3] (first compound 0.08 µM) it was 0.943; in experiment [3] (first compound 0.253 µM) it was 0.687. In addition, the figures for the relative viability in experiment [3] (first compound 0.8 µM), in experiment [3] (first compound 2.53 µM) and in experiment [3] (first compound 8 µM) were 0.708, 0.632 and 0.346, respectively.
Regarding UMC-11, the relative viability in experiment [1] (first compound 0.08 µM) came to 0.654; in experiment [1] (first compound 0.253 µM), 0.558; in experiment [1] (first compound 0.8 µM) it was 0.672; in experiment [1] (first compound 2.53 µM), 0.712; in experiment [1] (first compound 8 µM), 0.404; in experiment [2] (first compound 0.08 µM) it was 0.317. In addition, the relative viability turned out to be 0.27 in experiment [2] (first compound 0.253 µM); 0.325 in experiment [2] (first compound 0.8 µM); 0.312 in experiment [2] (first compound 2.53 µM); 0.303 in experiment [2] (first compound 8 µM); 0.432 in experiment [3] (first compound 0.08 µM); 0.336 in experiment [3] (first compound 0.253 µM). Also, the relative viability in experiment [3] (first compound 0.8 µM) was 0.353; in experiment [3] (first compound 2.53 µM), 0.281; in experiment [3] (first compound 8 µM), 0.194.
